From publication PMC7667029, “A Targeted Computational Screen of the SWEETLEAD Database Reveals FDA-Approved Compounds with Anti-Dengue Viral Activity” (mBio, 2020)
“Also recorded” adds a separate entry of the source.

What was measured:
[1] = ref PubChem database, cited from earlier work
[2] = test system: dengue virus; test: Extracellular and intracellular virus quantification in Huh7 cells; type: cell-based; conditions: IC90 dose (spautin-1 2.4 μM, vandetanib 3.6 μM), Huh7, 24 hpi
Experimental: (§1) FIG 5 Vandetanib and spautin-1 inhibit dengue maturation and egress in a VPS34-independent manner. […] Cells were pretreated for 1 h, infected for 1 h at an MOI of 0.5 PFU/cell, and posttreated for an additional 23 h. N = 4, one-way ANOVA with Dunnett’s multiple-comparison test. ns, not significant (P > 0.05); **, P < 0.01; ****, P < 0.0001. (C) Huh7 cells transfected with a luciferase-expressing RNA replicon were treated with 3 μM vandetanib (orange) or 1% DMSO vehicle control (black) for 1 h prior to transfection and up to 52 h posttransfection. Luciferase intensity was quantified as a measure of viral protein abundance. Luciferase intensity was shown as relative light units (RLU). The use of an RNA replicon that is directly transfected into cells reflects only translation and RNA replication steps of viral infection, not viral packaging or cell exit. N = 4, two-way ANOVA with Sikak’s multiple-comparison test. […] (D) VPS34 was not required for spautin-1 or vandetanib anti-dengue activity. Wild-type and VPS34 knockout Huh7 cells were treated with 5 μM spautin-1, 5 μM vandetanib, or DMSO. Cells were pretreated, infected at an MOI of 0.5, and posttreated as described above for panels A and B. At 24 hpi, cellular supernatant was collected and titered by plaque assay. N ≥ 3. One-way ANOVA with Dunnett’s multiple-comparison test; *, P < 0.05; **, P < 0.01; ***, P < 0.001; ****, P < 0.0001.
After 1 h, virus inoculum was aspirated and replaced with medium containing compounds or 1% DMSO. After 24-h total infection, extracellular virus was collected in cellular supernatant and quantified by plaque assay. To collect intracellular virus, cells were washed with PBS, incubated for 3 min at 4°C with high-salt buffer (1 M NaCl, 50 mM sodium bicarbonate [pH 9.5]) to detach cell-associated extracellular virus ([63]), washed twice with PBS, detached with 0.25% trypsin-EDTA, and isolated by centrifugation (500 × g, 5 min, 4°C). Infected cell pellets were resuspended in 750 μl cell culture medium, lysed by repeated freeze/thaw in liquid nitrogen followed by 37°C water bath. Debris was removed by centrifugation (3,200 × g, 5 min, 4°C), and infectious intracellular virus was quantified by BHK-21 plaque assay.

[3] = test system: dengue virus; test: Antiviral activity in VPS34 knockout Huh7 cells; type: cell-based; conditions: 5 μM compound, MOI 0.5, 24 hpi
Experimental: FIG 5 Vandetanib and spautin-1 inhibit dengue maturation and egress in a VPS34-independent manner. […] Cells were pretreated for 1 h, infected for 1 h at an MOI of 0.5 PFU/cell, and posttreated for an additional 23 h. N = 4, one-way ANOVA with Dunnett’s multiple-comparison test. ns, not significant (P > 0.05); **, P < 0.01; ****, P < 0.0001. (C) Huh7 cells transfected with a luciferase-expressing RNA replicon were treated with 3 μM vandetanib (orange) or 1% DMSO vehicle control (black) for 1 h prior to transfection and up to 52 h posttransfection. Luciferase intensity was quantified as a measure of viral protein abundance. Luciferase intensity was shown as relative light units (RLU). The use of an RNA replicon that is directly transfected into cells reflects only translation and RNA replication steps of viral infection, not viral packaging or cell exit. N = 4, two-way ANOVA with Sikak’s multiple-comparison test. […] (D) VPS34 was not required for spautin-1 or vandetanib anti-dengue activity. Wild-type and VPS34 knockout Huh7 cells were treated with 5 μM spautin-1, 5 μM vandetanib, or DMSO. Cells were pretreated, infected at an MOI of 0.5, and posttreated as described above for panels A and B. At 24 hpi, cellular supernatant was collected and titered by plaque assay. N ≥ 3. One-way ANOVA with Dunnett’s multiple-comparison test; *, P < 0.05; **, P < 0.01; ***, P < 0.001; ****, P < 0.0001. […]

[4] = test system: DENV2; test: DENV2-infected AGB6 mouse model (splenic titer, survival); type: in vivo, AGB6 mice; conditions: AGB6 mice, 15 mg/kg vandetanib twice daily, 15 mg/kg; for Splenic viral titer: 4 days postinfection; for Survival of infected mice: oral
[5] = test system: DENV-2 luciferase-expressing replicon; test: Replicon luciferase assay in Huh7 cells; type: cell-based, dengue virus; conditions: 3 μM vandetanib, Huh7, up to 52 h posttransfection
Experimental: as §1, with “Wild-type and VPS34 knockout Huh7 cells were treated with 5 μM spautin-1, 5 μM vandetanib, or DMSO. Cells were pretreated, infected at an MOI of 0.5, and posttreated as described above for panels A and B. At 24 hpi, cellular supernatant was collected and titered by plaque assay. N ≥ 3. One-way ANOVA with Dunnett’s multiple-comparison test; *, P < 0.05; **, P < 0.01; ***, P < 0.001; ****, P < 0.0001.” left out
A dengue replicon derived from the dengue virus strain 16681 expressing Renilla luciferase and dengue nonstructural proteins has been previously established ([7], [64]). […] Transfected cells were harvested and analyzed using the Renilla luciferase assay system (Promega BioSystems). Luciferase intensity was measured with a GloMax luminometer (10-s signal integration; Promega BioSystems).

COc1cc2c(Nc3ccc(Br)cc3F)ncnc2cc1OCC1CCN(C)CC1 [Vandetanib, vandetanib]
LD50 ([1]; Oral, single dose): > 1000 mg/kg | Acute toxicity in words (Table S2) ([1]; healthy mice): only mildly toxic | Extracellular viral titer [2]: significantly reduced; also recorded: reduced extracellular virus | Infectious intracellular virus [2]: unchanged; also recorded: abundant intracellular virus | Antiviral activity in VPS34 knockout cells [3]: retained significant antiviral activity; also recorded: retained their ability to limit dengue virus egress | Splenic viral titer [4]: did not affect splenic titers | Splenic viral titer ([4]; listed as vandetanib): did not significantly impact splenic viral titer | Survival of infected mice [4]: extend survival | Survival of infected mice ([4]; listed as vandetanib): significantly extended survival | Luciferase production of replicon [5]: no effect on luciferase production; also recorded: no significant differences
